Entries after “also recorded” stand apart in the source; their conditions may differ. Read-outs that look alike come from different tables or passages of the source.
Key:
[1] = system: NP-3 mouse HD model; conditions: cited from earlier work
[2] = system: Htt-Q138 expressing Drosophila primary neural cultures; assay: Morphological analysis of small-molecule treated Htt-Q138 primary neural cultures versus Htt-Q15 controls; type: cell-based; conditions: for Morphology profiles of Q138 expressing neurons (effect in words): Htt-Q138 primary neural cultures, compared with Htt-Q15 controls
Description: Primary Cell Culture. Elav^c155-GAL4 virgins were collected en-masse and crossed to either UAS-Htt-Q138-mRFP^1, UAS-mCD8-GFP or UAS-HttQ15-mRFP^1, UAS-mCD8-GFP males to generate embryos for primary culture preparation.
Compound screening: Primary cultures were re-suspended directly in Shields and Sang M3 media (Sigma) supplemented with 10 U/mL penicillin, 10 μg/mL streptomycin, 200 ng/mL insulin, and 5% fetal bovine serum. […] The neuroblast density was 18,500 cells/well. The primary screen was carried out in duplicate and hits were validated with 12 additional replicate wells.
Microscopy: For high-content screening mature 7-day old cultures were imaged with an ImageXpress^MICRO robotic microscope (Molecular Devices, Sunnyvale, Calif.) using a 10× objective and FITC/Cy3 filter sets. […] Laser-based autofocusing was used to locate plate bottoms, and then image-based focusing used to resolve fluorescently labeled neurons over a 48 μm range. The GFP and mRFP channels were imaged in the same focal plane, with exposure times of 850 and 400 ms respectively. Three sites were imaged per well for each treatment group, and the screen was done in duplicate. For confocal microscopy of primary cultures, neuroblasts were plated on poly-L-lysine coated chambered cover slips (LabTekII, 0.8 cm^2/well) at 18,300 cells/well in 50 μL volume. Small molecules were added to cultures 24 hours after plating, incubated for 7 days, and then imaged with a Leica TCS-SP2 confocal LSM microscope.
Digital Image Analysis of High Content Screening Data Sets: Neuronal morphological analysis and Htt aggregate quantification for automated microscopy images was performed as previously described (Schulte et al., Wu et al.). In brief, Htt-Q138 aggregates were quantified as the total number of pixels/image with an intensity higher than an empirically set threshold. Statistical analysis was conducted using a two sample t-test. To quantify neuronal morphologies, cell body clusters (neuromeres) and neurites were extracted from images using our custom algorithms (Wu et al.). […] Absolute counts of neuromeres/bin were tabulated for all images. Neurite segment lengths were similarly clustered into three groups (short, medium, and long) using the K-means method and then quantified. Cell cluster and neurite counts were converted into percentages to control for any variation in cell number between wells arising from pipetting error. Mean neuromere area and neurite length for each image were also calculated to give a total of eight morphological metrics for image morphology quantification. For statistical analysis, p-values for each morphological feature were calculated using a two sample t-test (e.g. small neuromere feature of Htt-Q138 drug-treated cultures versus small neuromere feature of Htt-Q15 DMSO cultures). […] The combined statistic has a χ^2 distribution with 2k degrees of freedom under the joint null hypothesis. This method works well in cases where the evidence against the null-hypothesis is spread across different features. Excluded from analysis were compound-treated wells with <6 images, out-of-focus images, or images that lacked cell profiles altogether.

[3] = system: Htt138Q aggregate formation; assay: Htt-Q138 aggregation-inhibition screening of small molecules in Drosophila primary neural cultures (automated microscopy); type: cell-based; conditions: for Htt-Q138 aggregation (effect in words): Htt-Q138 primary neural cultures; for Htt-Q138 aggregate formation (effect in words): range of concentrations (56 μM, 5.6 μM)
Description: Primary Cell Culture. Elav^c155-GAL4 virgins were collected en-masse and crossed to either UAS-Htt-Q138-mRFP^1, UAS-mCD8-GFP or UAS-HttQ15-mRFP^1, UAS-mCD8-GFP males to generate embryos for primary culture preparation. Neuroblasts were isolated as described (Sepp et al., 2008).
Compound screening: Primary cultures were re-suspended directly in Shields and Sang M3 media (Sigma) supplemented with 10 U/mL penicillin, 10 μg/mL streptomycin, 200 ng/mL insulin, and 5% fetal bovine serum. […] of compounds from arrayed small-molecule libraries (NINDS Custom Collection 2, Prestwick) Collection, BIOMOL2 ICCB-Longwood Known Bioactives High Concentration, various concentration from 1-15 mM in DMSO) were applied to 50 μL of cultures 24 hours after plating on optical bottom 384-well plates (Corning 3712). The neuroblast density was 18,500 cells/well. The primary screen was carried out in duplicate and hits were validated with 12 additional replicate wells.
(§1) Microscopy: For high-content screening mature 7-day old cultures were imaged with an ImageXpress^MICRO robotic microscope (Molecular Devices, Sunnyvale, Calif.) using a 10× objective and FITC/Cy3 filter sets. Images were 1392×1040 pixels, or 897×670 micrometers. Laser-based autofocusing was used to locate plate bottoms, and then image-based focusing used to resolve fluorescently labeled neurons over a 48 μm range. The GFP and mRFP channels were imaged in the same focal plane, with exposure times of 850 and 400 ms respectively. Three sites were imaged per well for each treatment group, and the screen was done in duplicate. For confocal microscopy of primary cultures, neuroblasts were plated on poly-L-lysine coated chambered cover slips (LabTekII, 0.8 cm^2/well) at 18,300 cells/well in 50 μL volume. Small molecules were added to cultures 24 hours after plating, incubated for 7 days, and then imaged with a Leica TCS-SP2 confocal LSM microscope.
Digital Image Analysis of High Content Screening Data Sets: Neuronal morphological analysis and Htt aggregate quantification for automated microscopy images was performed as previously described (Schulte et al., Wu et al.). In brief, Htt-Q138 aggregates were quantified as the total number of pixels/image with an intensity higher than an empirically set threshold. Statistical analysis was conducted using a two sample t-test. To quantify neuronal morphologies, cell body clusters (neuromeres) and neurites were extracted from images using our custom algorithms (Wu et al.). […] Absolute counts of neuromeres/bin were tabulated for all images. Neurite segment lengths were similarly clustered into three groups (short, medium, and long) using the K-means method and then quantified. Cell cluster and neurite counts were converted into percentages to control for any variation in cell number between wells arising from pipetting error. Mean neuromere area and neurite length for each image were also calculated to give a total of eight morphological metrics for image morphology quantification. For statistical analysis, p-values for each morphological feature were calculated using a two sample t-test (e.g. small neuromere feature of Htt-Q138 drug-treated cultures versus small neuromere feature of Htt-Q15 DMSO cultures). The resultant morphological p-values for individual features were then integrated into a single p-value using the Fisher method (Fisher 1932) defined by the equation χ^2=−2Σi=1^k loge(pi), where k represents independent tests, pi is the p-value of the i-th feature. The combined statistic has a χ^2 distribution with 2k degrees of freedom under the joint null hypothesis. This method works well in cases where the evidence against the null-hypothesis is spread across different features. Excluded from analysis were compound-treated wells with <6 images, out-of-focus images, or images that lacked cell profiles altogether.

[4] = system: gap junction; conditions: cited from earlier work
[5] = system: PC12 cells; conditions: cited from earlier work
[6] = system: HD larvae (Elav^c155-GAL4; UAS-Htt-Q138/+); assay: In vivo rescue: viability of HD larvae after 5-day drug dosing in liquid culture; set-up: species or system Drosophila; conditions: larvae reared in liquid culture, 5-day dosing, compared to DMSO-treated controls
Description: In vivo Rescue studies: For small molecule in vivo rescue studies, Elav^c155; UAS-Htt-Q138-mRFP^1, UAS-mCD8-GFP/+1st instar larvae were collected en-masse and dispensed into liquid yeast media (10 larvae/well) containing therapeutic agents at three different concentrations as described in the results (n=8 replicas/concentration). Cultures were reared at 21° C. and larval viability was assessed after 5 days and the mean number of living Htt138Q larvae (i.e. GFP^+, Htt138QmRFP^+, and mobile) was tabulated, and expressed as a percentage of total larvae/well. For genetic rescue studies with lkb1, two Htt138Q strains were utilized: a strong expressing line, UAS-Htt138QmRFP^1 which is pharate lethal when crossed to Elav^c155, and a weaker expressing line, UAS-Htt138QmRFP^2 which survives to adulthood and is viable for a number of weeks. Using the strong line, pharate lethality at 25° C. was calculated after lkb1 (lkb1^4B1-11 and lkb1^4A4-2 alleles) was introduced into an Elav^c155, UAS-Htt/+background. Lkb1^4B1-11 is a premature truncation allele (Q98>Stop), and lkb1^4A4-2 is an EMS null allele (589 b.p. deletion removing 150 b.p. of the 5′ UTR, the start codon and the beginning of the open reading frame). For Top1 in vivo analysis, Elav^c155, Top^112 recombinants were generated and crossed to UAS-Htt138QmRFP^1.
To further examine the RNAi/small molecule screen hits, we assayed in vivo efficacy by testing their ability to rescue lethality in our Drosophila HD model. […] Specific inhibitors of Lkb1 were not available for in vivo testing.

[7] = system: Htt-Q138 expressing primary neural cultures; assay: In vitro validation of screen hits by confocal microscopy of primary cultures on glass coverslips; type: cell-based, Drosophila; conditions: for Aggregate formation (confocal): 56 μM, Htt-Q138 expressing cultures
From the text: FIG. 4. In vitro validation of small molecule screen hits. Confocal microscopy images of primary cultures plated on glass coverslips and treated with either DMSO (A,B) or test compounds (C,D). […] HttQ15 is soluble and fills most neurite processes. […] (E) Quantification of altered Htt138Q distribution following Camptothecin treatment.
as §1

[8] = Solubility / precipitation in cultures; type: physicochemical; conditions: liquid cultures

O=C1Nc2ccc(I)cc2/C1=C/c1cc(Br)c(O)c(Br)c1 [GW5074]
Striatal degeneration [1]: reduced striatal degeneration | Neurotoxic properties / morphological defects in cultures [2]: reduced axon outgrowth, neuromere size, and suppressed GFP expression | Morphology profiles of Q138 expressing neurons (effect in words) [2]: none reverted the morphology profiles of Q138 expressing neurons towards normal | Htt-Q138 aggregation (effect in words) [3]: reduced Htt-Q138 aggregation; also recorded: inhibited mutant Hu aggregate formation

CC1(C)[C@@H](O)CC[C@]2(C)[C@H]3C(=O)C=C4[C@@H]5C[C@@](C)(C(=O)O)CC[C@]5(C)CC[C@@]4(C)[C@]3(C)CC[C@@H]12 [18β-Glycyrrhetinic acid]
Gap junction activity [4]: block gap junction activity | Neurotoxicity in PC12 cellular stress model [5]: suppresses neurotoxicity | Viability of Htt-Q138 expressing larvae / rescue of Htt-Q138 lethality [6]: rescue HD toxicity in vivo | Viability of Htt-Q138 expressing larvae / rescue of Htt-Q138 lethality ([6]; listed as 180-Glycyrrhetinic acid): almost as efficacious as Rapamycin

C=C1[C@@H](O)[C@@H]2O[C@]3(CC[C@H](/C=C/[C@@H](C)[C@@H]4CC(C)=C[C@@]5(O[C@H](C[C@@](C)(O)C(=O)O)CC[C@H]5O)O4)O3)CC[C@H]2O[C@@H]1[C@@H](O)C[C@H](C)[C@H]1O[C@@]2(CCCCO2)CC[C@H]1C [Okadaic acid]
Morphology profiles of Q138 expressing neurons (effect in words) [2]: exacerbated the mutant Htt-Q138 mutant morphology | Htt-Q138 aggregation (effect in words) [3]: suppress Htt-Q138 aggregation

CCC1(O)C(=O)OCc2c1cc1n(c2=O)Cc2cc3cc(O)ccc3nc2-1 (centres unmarked) [10-OH-Camptothecin]
Viability of Htt-Q138 expressing larvae / rescue of Htt-Q138 lethality ([6]; listed as 10-Hydroxycamptothecin): increased larval longevity in vivo, but to a lesser extent than Rapamycin; also recorded: more efficacious than Camptothecin | Dystrophic morphology profiles (effect in words) [2]: partially reverting dystrophic morphology profiles | Morphology profiles of Q138 expressing neurons (effect in words) [2]: Rescue of Htt-Q138 mutant morphology | Htt-Q138 aggregate formation (effect in words) [3]: rescue aggregate formation | Aggregate formation (confocal) [7]: reduces aggregate formation

CO[C@H]1C[C@@H]2CC[C@@H](C)[C@@](O)(O2)C(=O)C(=O)N2CCCC[C@H]2C(=O)O[C@H]([C@H](C)C[C@@H]2CC[C@@H](O)[C@H](OC)C2)CC(=O)[C@H](C)/C=C(\C)[C@@H](O)[C@@H](OC)C(=O)[C@H](C)C[C@H](C)/C=C/C=C/C=C/1C [Rapamycin]
Neurotoxic properties / morphological defects in cultures ([2]; primary neural cultures): reduced axon outgrowth, neuromere size, and suppressed GFP expression

O=C(Nc1ccc(Br)cc1)c1cccc(S(=O)(=O)Nc2ccc(Br)cc2)c1 [C2-8]
Neurotoxic properties / morphological defects in cultures [2]: reduced axon outgrowth, neuromere size, and suppressed GFP expression | Morphology profiles of Q138 expressing neurons (effect in words) [2]: none reverted the morphology profiles of Q138 expressing neurons towards normal | Htt-Q138 aggregation (effect in words) [3]: reduced Htt-Q138 aggregation

CC[C@@]1(O)C(=O)OCc2c1cc1n(c2=O)Cc2cc3ccccc3nc2-1 [Camptothecin]
Precipitation when added to cultures [8]: readily precipitates when added to cultures | Viability of Htt-Q138 expressing larvae / rescue of Htt-Q138 lethality [6]: increased larval longevity in vivo, but to a lesser extent than Rapamycin | Neurotoxic properties / morphological defects in cultures ([2]; primary neural cultures): did not observe morphological defects | Dystrophic morphology profiles (effect in words) ([2]; range of concentrations (56 μM, 5.6 μM)): partially reverting dystrophic morphology profiles | Htt-Q138 aggregate formation (effect in words) [3]: rescue aggregate formation | Aggregate formation (confocal) [7]: reduces aggregate formation | Number of Htt138Q pixels/neuronal area (Htt-RFP pixels/neuromere and neurite GFP pixels) ([7]; mutant cultures, p<0.05, n=4): increase

C[C@@H]1C[C@H]2O[C@@H]2/C=C\C=C\C(=O)Cc2c(Cl)c(O)cc(O)c2C(=O)O1 [Radicicol]
Neurotoxic properties / morphological defects in cultures [2]: reduced axon outgrowth, neuromere size, and suppressed GFP expression | Morphology profiles of Q138 expressing neurons (effect in words) [2]: none reverted the morphology profiles of Q138 expressing neurons towards normal | Htt-Q138 aggregation (effect in words) [3]: reduced Htt-Q138 aggregation

Reference: patent US20130303562A1, “CHEMICAL AND RNAI SUPPRESSORS OF NEUROTOXICITY IN HUNTINGTON'S DISEASE” (priority 2010, published 2013)
